{"source": "patent US6943191B1", "about": "“Disubstituted lavendustin A analogs and pharmaceutical composition comprising the analogs” (The United States of America as represented by the …, priority 1998, dated 2005)", "tested_on": "UACC-62", "assay": "Hollow fiber assay in mice, UACC-62", "type": "in vivo, human", "details": "QD X 4, Day 4; for % T/C UACC-62 IP: IP fibers; for % T/C UACC-62 SC: SC fibers", "protocol": "Compounds satisfying Formulas 1 and 2 also have been tested for in vivo activity in the hollow fiber assay. See Example 12 below for the procedure used for the in vivo tests. Each compound tested was tested against a minimum of 12 human cancer cell lines. Data is reported as % T/C (i.e., the […]) for each of the 2 compound doses against each of the cell lines with separate values calculated for the intraperitoneal and subcutaneous samples, with a target value for % T/C being about 50 or less.\nCompounds were selected for further in vivo testing in standard subcutaneous xenograft models on the basis of several hollow fiber assay criteria. These criteria include: (1) a % T/C of 50 or less in 10 of the 48 possible test combinations (12 cell lines×2 sites×2 compound doses); (2) activity at a distance (intrapentoneal drug/subcutaneous culture) in a minimum of 4 of the 24 possible combinations; and/or (3) a net cell kill of 1 or more cell lines in either implant site. To simplify evaluation, a point system has been adopted which allows rapid assessment of a compound's activity. A value of 2 is assigned for each compound dose which results in a 50% or greater reduction in viable cell mass. The intraperitoneal and subcutaneous samples were scored separately so that criteria (1) and (2) could be evaluated. Compounds with a combined IP+SC score≧20, an SC score≧8, or a net cell kill of one or more cell lines were referred for xenograft testing. These criteria have been statistically validated by comparing the activity outcomes of greater than 80 randomly selected compounds in the hollow fiber assay and in the xenograft testing.\nThis example describes the method used for in vivo testing of mice. Human cancer cells were cultivated in polyvinylidene fluoride (PVDF) hollow fibers. A sample of each cancer cell line was implanted intraperitoneally and subcutaneously in mice. Each mouse received a total of 6 fibers, 3 intraperitoneally and 3 subcutaneously, representing 3 distinct cancer cell lines. Three mice were treated with compounds made according to the present invention at each of two test doses intraperitoneally using a QD×4 treatment schedule. […] Anticancer effects were assessed by determining viable cell mass for each of the coil line using a formazan dye (MTT) conversion assay. From this, the % TIC was calculated using the average optical density of the compound-treated samples divided by the average optical density of the vehicle controls. In addition, the net increase in cell mass was determined for each sample as samples of fiber cultures were assessed for viable cell mass on the day of implantation into mice. This allowed cytostatic and cytocidal capacities of these compounds to be assessed.", "data": [{"smiles": "O=C(OC12CC3CC(CC(C3)C1)C2)c1ccc(NCc2cc(O)ccc2O)cc1", "note": "[Compound 6, 4′-adamantylbenzoate-1′-N-2,5-dihydroxybenzylamine]", "values": [{"measurement": "% T/C UACC-62 IP", "setting": "33.50 mg/kg/dose IP", "result": ">100", "unit": "%"}, {"measurement": "% T/C UACC-62 IP", "setting": "50.00 mg/kg/dose IP", "result": ">100", "unit": "%"}, {"measurement": "% T/C UACC-62 SC", "setting": "33.50 mg/kg/dose IP", "result": 99, "unit": "%"}, {"measurement": "% T/C UACC-62 SC", "setting": "50.00 mg/kg/dose IP", "result": 99, "unit": "%"}]}]}
